Entries after “also recorded” stand apart in the source; their conditions may differ. Where no end group is shown, it is not given here. [ ]: non-standard residue; d: D form.
Key:
[1] = tested on: C57/BL6 mice given intranasal LPS (animal model of ARDS and sepsis); experiment: Neutrophil infiltration in BAL after intranasal peptide, LPS-induced mouse model of ARDS and sepsis (FIG. 1); format: in vivo; conditions: repeated dose co-administered with LPS (10 μg/mouse), BAL 6 hours later, n=5
Description: FIG. 1 is a graphical representation showing the percentage of neutrophils (y-axis) in bronchoalveolar lavage (BAL) in 8-week to 12-week old C57/BL6 mice receiving various treatments indicated by numbers on the x-axis as follows:
Columns 1-4 (open bars): Animals (n=5 per group) received either no LPS (column 1) or a dose of LPS intranasally (10 μg/mouse) and BAL was performed 1 hour (column 2), 4 hours (column 3) or 6 hours (column 4) later. No peptide was administered to these animals.
Columns 5-7 (filled bars): Animals (n=5 per group) received an intranasal dose of 10 mg/kg body weight of retroinverted peptide analog D-PYC36-TAT (SEQ ID NO: 106; column 5) or D-PYC35-TAT (SEQ ID NO: 104; column 6), or 5 mg/kg body weight of retroinverted peptide analog D-PYC38-TAT (SEQ ID NO: 108; column 7), by a repeated dose of the same peptide analog for each group co-administered intranasally with LPS (10 μg/mouse) and BAL was performed 6 hours later.
Column 8 (hatched bars): Animals (n=5) received an intranasal dose of 10 mg/kg body weight of a scrambled version of SEQ ID NO: 106 designated D-PYC36scrambled-TAT followed 1 hour later by a repeated dose of the same peptide analog co-administered intranasally with LPS (10 μg/mouse) and BAL was performed 6 hours later.
BAL was performed on the animals using 1 ml GKN/0.2% BSA. Cell counts were obtained to determine total cell numbers and differential counts were obtained on cytocentrifuge slide preparations to elucidate the percentage neutrophils in BAL.
8-12 week old C57/B16 mice were purchased from the Animal Resource Center, Murdoch University, Western Australia and used for all experiments. All experiments were approved by the necessary institutional animal ethics committees and were performed in accordance with the National Health and Medical Research Council (NHMRC) Australian Code of Practice for the Care and Use of Animals for Scientific Purposes. […]

[2] = tested on: female C57/BL6 mice given intranasal LPS (animal model of ARDS and sepsis); experiment: Neutrophil infiltration in BAL after intravenous peptide injection, LPS-induced mouse model of ARDS and sepsis (FIG. 2); format: in vivo; conditions: intravenous 10 mg/kg 20 min before intranasal LPS (40 μg/mouse), repeat injections 2 and 4 hours post-LPS, BAL 6 hours after LPS
Description: FIG. 2 is a graphical representation showing the percentage of neutrophils (y-axis) in bronchoalveolar lavage (BAL) in 8-week to 10-week old female C57/BL6 mice receiving various treatments indicated by numbers on the x-axis as follows:
Column 1 (naïve): Animals received no LPS and BAL was performed 6 hours later. No peptide was administered to these animals.
Column 2 (nil): Animals received an intranasal dose of E. coli LP (40 μg/mouse) and BAL was performed 6 hours later.
Column 3 (D36-TAT x1): Animals received a single intravenous injection of 10 mg/kg body weight of retroinverted peptide analog D-PYC36-TAT (SEQ ID NO: 106) followed 20 min later by an intranasal dose of LPS (40 μg/mouse). BAL was performed 6 hours after LPS administration.
Column 4 (D36-TATscr x1): Animals received a single intravenous injection of 10 mg/kg body weight of a peptide having a scrambled sequence relative to the retroinverted peptide analog D-PYC36-TAT (SEQ ID NO: 106) followed 20 min later by an intranasal dose of LPS (40 μg/mouse). BAL was performed 6 hours after LPS administration. […]

[3] = intranasal 10 mg/kg body weight 1 hour before LPS

Substance	percentage of neutrophils in bronchoalveolar lavage (BAL) ([1]; intranasal 5 mg/kg body weight 1 hour before LPS)	percentage of neutrophils in bronchoalveolar lavage (BAL) [1, 3]	percentage of neutrophils in bronchoalveolar lavage (BAL) [2]
SEQ ID NO: 108: retroinverted peptide analog of SEQ ID NO: 61 fused to the TAT 10-mer with a linking glycine; AP-1 signaling inhibitor ([dR][dH][dA][dP][dL][dA][dR]G[dS][dW][dR]G[dQ][dP][dQ][dQ]G[dP][dQ][dR][dR]G[dQ][dL]GG[dR][dR][dR][dQ][dR][dR][dK][dK][dR]G)	significantly reduced; also recorded: significantly-reduced		
SEQ ID NO: 104: retroinverted peptide analog of SEQ ID NO: 57 fused to the TAT 10-mer with a linking glycine; AP-1 signaling inhibitor ([dR][dE][dR][dK][dS][dS][dS][dE][dI]GG[dS][dR][dI][dS][dQ][dY][dA]G[dR][dR][dR][dQ][dR][dR][dK][dK][dR]G; also: retro-inverso)		significantly reduced; also recorded: significantly-reduced	
SEQ ID NO: 106: retroinverted peptide analog of SEQ ID NO: 59 fused to the TAT 10-mer with a linking glycine; AP-1 signaling inhibitor ([dP][dK][dI][dS][dQ][dY]G[dQ][dR][dR][dR]G[dQ][dL]GG[dR][dR][dR][dQ][dR][dR][dK][dK][dR]G)		significantly reduced; also recorded: significantly-reduced	significantly reduced; also recorded: significantly-reduced
